Values quoted from earlier work in patent US20240408074A1, “METHODS FOR THE TREATMENT AND PREVENTION OF NON-VIRAL TICK-BORNE DISEASES AND SYMPTOMS THEREOF OF” (60 DEGREES PHARMACEUTICALS LLC, priority 2023, published 2024).

How the values were obtained:
[1] = tested on: free-living gram-negative bacteria and free-living gram-positive bacteria; conditions: gram-negative versus gram-positive; cited from earlier work
[2] = tested on: Plasmodium vivax; conditions: 400 mg/day for three days, cited from earlier work
[3] = tested on: B. microti; conditions: one patient; prior rituximab; tafenoquine at approved malaria prevention dose as monotherapy for six weeks; cited from earlier work
[4] = tested on: Leishmania major; conditions: intracellular amastigote forms; cited from earlier work
[5] = tested on: B. rodhaini; conditions: cited from earlier work
[6] = 600 mg over three days then 200 mg weekly for up to one year; reversible, not clinically significant; cited from earlier work
[7] = tested on: Trypanosoma brucei; conditions: extracellular blood stage forms; cited from earlier work
[8] = tested on: Plasmodium falciparum; conditions: 600 mg loading dose then 200 mg; parasite load three days after last dose; all control subjects developed parasitemia; cited from earlier work
[9] = tested on: P. falciparum; conditions: in vivo; cited from earlier work
[10] = tested on: P. falciparum gametocytes; conditions: Example 5; single dose of primaquine combined with dihydroartemisinin/piperaquine, or dihydroartemisinin-piperaquine alone; cited from earlier work
[11] = tested on: Babesia parasites; conditions: 2 h; formation of large vacuoles; cited from earlier work
[12] = tested on: Leptospira; conditions: exposure for as little as 30 min; cited from earlier work
[13] = tested on: Trypanosome brucei blood stage forms; conditions: exposure for 90 minutes; cited from earlier work
[14] = tested on: P. falciparum; conditions: 250 mg/day, cited from earlier work
[15] = immunocompromised SCID mice, single dose of 20 mg/kg

COc1cc(C)c2c(Oc3cccc(C(F)(F)F)c3)c(OC)cc(NC(C)CCCN)c2n1 (stereo not shown) [tafenoquine, N(4)-[2,6-Dimethoxy-4-methyl-5-[3-(trifluoromethyl)phenoxy]quinolin-8-yl]pentane-1,4-diamine]
activity against free-living bacteria [1]: much less active against free-living gram-negative bacteria than free-living gram-positive bacteria | day by which all patients cleared blood stage parasites ([2]; monotherapy): ≤ 8 days | relapses during the follow up period ([2]; patients for whom data was available): no relapses | outcome of treatment in the patient [3]: cured | potency of killing [4]: < 4 µM | parasitemia ([5]; Balb/c (immunocompetent) mice, single dose of 20 mg/kg): cleared parasitemia | survival ([5]; Balb/c (immunocompetent) mice, single dose of 20 mg/kg, infection uniformly lethal in untreated animals): 100% | death [5, 15]: delayed not prevent | parasitemia and relapses [5, 15]: cleared initial parasitemia but did not prevent relapses | vacuole formation in B. rodhaini blood stages ([5]; mice, single dose of 20 mg/kg): induces the formation of large vacuoles | antioxidant enzymes in B. rodhaini ([5]; mice, single dose treatment): upregulated | clearance and cure of Babesia ([5]; one and three doses, immunocompromised mice and dogs): sufficient to clear and cure Babesia | specific adverse events with increased risk [6]: gastrointestinal effects [mild to moderate] and cornea verticillata | potency of killing [7]: < 4 µM | subjects who developed blood stage parasitemia [8]: none | activity against the blood stages of P. falciparum [9]: quite effective

COc1cc(NC(C)CCCN)c2ncccc2c1 (stereo not shown) [primaquine]
time until gametocytes non-infectious to mosquitoes at a level statistically lower than reference values [10]: two days post-dosing

OO [hydrogen peroxide]
concentration that kills Babesia parasites in vitro [11]: 100 µM | concentration that killed various serovars [12]: < 180 µM | concentration that kills blood stage forms [13]: approximately 140 microM

CC[C@H]1OC(=O)[C@H](C)[C@@H](O[C@H]2C[C@@](C)(OC)[C@@H](O)[C@H](C)O2)[C@H](C)[C@@H](O[C@@H]2O[C@H](C)C[C@H](N(C)C)[C@H]2O)[C@](C)(O)C[C@@H](C)CN(C)[C@H](C)[C@@H](O)[C@]1(C)O [Azithromycin]
Protective Efficacy (%) Relative to Placebo, PF/Non-immune or Malaria-naïve ([14]; non-immune or malaria-naïve (Taylor)): 72% (Taylor) | Protective Efficacy (%) Relative to Placebo, Pf/Semi-Immune ([14]; semi-immune (Anderson)): 83% (Anderson)
